Measured values published in patent US10392428B2, “GLP-1 derivatives and uses thereof” (Novo Nordisk A/S, priority 2014, dated 2019).
Non-standard residues stand in square brackets, D forms with d. Residues, ends and D or L forms follow the SMILES beside them. Groups on a side chain read outwards from the residue. *: point of attachment. X2 = O=C(O)CCCCCCCCCCCCCCCCCCC(=O)NC[C@H]1CC[C@H](C(=O)N[C@@H](CCC(=O)NCCCC[C@H](NC(=O)CC[C@H](NC(=O)[C@H]2CC[C@H](CNC(=O)CCCCCCCCCCCCCCCCCCC(=O)O)CC2)C(=O)O)C(=O)*)C(=O)O)CC1; Desaminohistidyl = O=C(CCc1c[nH]cn1)*; AEEA = NCCOCCOCC(=O)O; Aib = CC(C)(N)C(=O)O

Tests used:
human GLP-1 receptor [1] = target: T1, human GLP-1 receptor (Homo sapiens, UniProt P43220); assay: GLP-1 receptor binding: competitive binding assay (125I-GLP-1, SPA) on isolated membranes at low and high HSA
T1 construct: expressed in transfected cells; host or cells: membrane preparation from BHK cells, clone FCW467-12A (parent line BHKTS13)
Description: The purpose of this example is to test the receptor binding of the GLP-1 derivatives in vitro. The receptor binding is a measure of affinity of a derivative for the human GLP-1 receptor.
Each derivative is added in a series of concentrations to isolated membranes containing the human GLP-1 receptor and displacement of the labelled ligand is monitored. The receptor binding is reported as the concentration at which half of the labelled ligand is displaced from the receptor, the IC50 value.
Buffer 1 consisted of 20 mM Na-HEPES plus 10 mM EDTA and pH was adjusted to 7.4. Buffer 2 consisted of 20 mM Na-HEPES plus 0.1 mM EDTA and pH was adjusted to 7.4. Assay buffer consisted of 50 mM HEPES supplemented with 5 mM EGTA, 5 mM MgCl2, 0.005% Tween 20 and pH was adjusted to 7.4. An 8% albumin stock consisted of HSA dissolved at 8% (w/v) in assay buffer. An 0.02% albumin stock consisted of HSA dissolved at 0.02% (w/v) in assay buffer.
The cells express the human GLP-1 receptor.
The cells were grown at 5% CO2 in DMEM, 10% fetal calf serum, 1% Pen/Strep (Penicillin/Streptomycin) and 1.0 mg/ml of the selection marker G418.
To make a membrane preparation the cells were grown to approximately 80% confluence. The cells were washed twice in phosphate-buffered saline and harvested. The cells were pelleted using a brief centrifugation and the cell pellet was kept on ice. […] The homogenate was centrifuged for 15 minutes. The pellet was re-suspended (homogenised) in 10 ml buffer 2 and centrifuged. This step was repeated once more. The resulting pellet was re-suspended in buffer 2 and the protein concentration was determined. The membranes were aliquoted and stored at minus 80° C.
For the receptor binding assay in the presence of low HSA (0.005%) 50 μl of the assay buffer was added to each well of an assay plate.
For the receptor binding assay in the presence of high HSA (2%) 50 μl of the 8% albumin stock was added to each well of an assay plate.
Cell membrane aliquots were thawed and diluted to their working concentration. Fifty μl were added to each well in the assay plate.
WGA SPA beads were suspended in assay buffer at 20 mg/ml. The suspension was diluted to 10 mg/ml in assay buffer just prior to addition to the assay plate. Fifty μl were added to each well in the assay plate.
A 25 μl aliquot was reserved for measuring total counts/well.
The assay plate was incubated for 2 h at 30° C.
The assay plate was centrifuged for 10 min.
The assay plate was read in a Packard TopCount NXT instrument.
The data from the TopCount instrument were transferred to Graph Pad Prism software. Individual replicates were analysed using non-linear regression. IC50 values were calculated by the software and reported in nM. The reported values are averages of all of the measured values for each compound.

human GLP-1 receptor [2] = target: T1, human GLP-1 receptor; assay: In vitro potency: CRE luciferase reporter gene assay in BHK cells expressing the human GLP-1 receptor; type: cell-based; settings: whole cell reporter gene assay, 3 h incubation, average of at least two replicates
Description: The purpose of this example is to test the activity, or potency, of the GLP-1 derivatives in vitro. The in vitro potency is the measure of human GLP-1 receptor activation in a whole cell assay.
In vitro potency was determined by measuring the response of the human GLP-1 receptor in a reporter gene assay. The assay was performed in a stably transfected BHK cell line that expresses the human GLP-1 receptor and contains the DNA for the cAMP response element (CRE) coupled to a promoter and the gene for firefly luciferase (CRE luciferase). When the human GLP-1 receptor is activated it results in the production of cAMP, which in turn results in the luciferase protein being expressed. When assay incubation is completed the luciferase substrate (luciferin) is added and the enzyme converts luciferin to oxyluciferin to produce bioluminescence. The luminescence is measured as the readout for the assay.
The cells were cultured at 5% CO2 in cell culture medium. They were aliquoted and stored in liquid nitrogen. Before each assay an aliquot was taken up and washed twice in PBS before being suspended at the desired concentration in the assay specific buffer.
Assay medium consisted of DMEM w/o phenol red, 10 mM Hepes and 1χ Glutamax. The assay buffer consisted of 2% ovalbumin and 0.2% Pluronic F-68 in assay medium.
1) Cell stocks were thawed in a 37° C. water bath.
2) Cells were washed three times in PBS.
3) Cells were counted and adjusted to 5×10^3 cells/50 μl (1×10^5 cells/ml) in assay medium. A 50 μl aliquot of cells was transferred to each well in the assay plate.
4) Stocks of the test compounds and reference compounds were diluted to a concentration of 0.2 μM in assay buffer. […] 8) A 100 μl aliquot of steadylite plus reagent was added to each well of the assay plate. […] 10) Each assay plate was read in a BioTek Synergy 2 Multi-Mode Reader.
The data from the BioTek Synergy 2 Multi-Mode Reader were transferred to GraphPad Prism software. […]
A minimum of two replicates was measured for each sample. The reported EC50 values are averages of all of the measured values for each compound.

[3] = Pharmacokinetic study in minipigs (i.v.); settings: male, Göttingen, minipig, in vivo, iv; minipigs, i.v., 15 nmol/kg; harmonic mean; read-out: Terminal half-live (converted)
Description: The derivatives of Examples 12, 14, and 15 were dosed 2 nmol/kg. The derivatives of Examples 1 and 2 were dosed 15 nmol/kg.

[4] = High HSA IC50 (nM), high HSA (2.0% final assay concentration)

T1 sequence (P43220 24-463): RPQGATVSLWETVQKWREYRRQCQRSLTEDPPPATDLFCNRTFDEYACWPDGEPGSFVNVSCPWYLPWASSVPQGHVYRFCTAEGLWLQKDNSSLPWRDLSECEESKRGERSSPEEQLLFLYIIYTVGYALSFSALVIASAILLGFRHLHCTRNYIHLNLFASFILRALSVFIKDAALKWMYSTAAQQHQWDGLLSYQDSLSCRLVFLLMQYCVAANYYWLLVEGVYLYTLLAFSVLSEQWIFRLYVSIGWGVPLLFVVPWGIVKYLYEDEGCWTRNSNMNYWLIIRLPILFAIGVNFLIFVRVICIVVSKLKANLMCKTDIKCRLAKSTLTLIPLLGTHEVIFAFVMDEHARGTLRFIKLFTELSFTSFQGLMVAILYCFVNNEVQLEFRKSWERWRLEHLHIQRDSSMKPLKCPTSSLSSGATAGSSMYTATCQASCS

SMILES | IC50 (human GLP-1 receptor [1]; [4]) [nM] | IC50 (human GLP-1 receptor [1]; Low HSA IC50 (nM), low HSA (max. 0.001% final assay concentration)) [nM] | EC50 (human GLP-1 receptor [2]) [nM] | half-life [3] [h]
CC[C@H](C)[C@H](NC(=O)[C@H](Cc1ccccc1)NC(=O)[C@H](CCC(=O)O)NC(=O)[C@H](CCCNC(=N)N)NC(=O)[C@H](C)NC(=O)[C@H](C)NC(=O)[C@H](CCC(N)=O)NC(=O)[C@H](CCC(=O)O)NC(=O)[C@H](CCC(=O)O)NC(=O)[C@H](CC(C)C)NC(=O)[C@H](Cc1ccc(O)cc1)NC(=O)[C@H](CO)NC(=O)[C@H](CO)NC(=O)[C@@H](NC(=O)[C@H](CC(=O)O)NC(=O)[C@H](CO)NC(=O)[C@@H](NC(=O)[C@H](Cc1ccccc1)NC(=O)[C@@H](NC(=O)CNC(=O)[C@H](CCC(=O)O)NC(=O)C(C)(C)NC(=O)[C@@H](N)Cc1c[nH]cn1)[C@@H](C)O)[C@@H](C)O)C(C)C)C(=O)N[C@@H](C)C(=O)N[C@@H](Cc1c[nH]c2ccccc12)C(=O)N[C@@H](CC(C)C)C(=O)N[C@H](C(=O)N[C@@H](CCCNC(=N)N)C(=O)NCC(=O)N[C@@H](CCCNC(=N)N)C(=O)N[C@@H](CCCCNC(=O)COCCOCCNC(=O)COCCOCCNC(=O)[C@H](CCCCNC(=O)CC[C@H](NC(=O)[C@H]1CC[C@H](CNC(=O)CCCCCCCCCCCCCCCCCCC(=O)O)CC1)C(=O)O)NC(=O)CC[C@H](NC(=O)[C@H]1CC[C@H](CNC(=O)CCCCCCCCCCCCCCCCCCC(=O)O)CC1)C(=O)O)C(=O)O)C(C)C [Example 11, N{Epsilon-37}-[2-[2-[2-[[2-[2-[2-[[(2S)-2,6-bis[[(4S)-4-carboxy-4-[[4-[(19-carboxynonadecanoylamino)methyl]cyclohexanecarbonyl]amino]butanoyl]amino]hexanoyl]amino]ethoxy]ethoxy]acetyl]amino]ethoxy]ethoxy]acetyl]-[Aib8,Glu22,Arg26,Arg34,Lys37]-GLP-1-(7-37)-peptide] | 150 | 1.5 | 0.13 | 
CC[C@H](C)[C@H](NC(=O)[C@H](Cc1ccccc1)NC(=O)[C@H](CCC(=O)O)NC(=O)[C@H](CCCNC(=N)N)NC(=O)[C@H](C)NC(=O)[C@H](C)NC(=O)[C@H](CCC(N)=O)NC(=O)[C@H](CCC(=O)O)NC(=O)[C@H](CCC(=O)O)NC(=O)[C@H](CC(C)C)NC(=O)[C@H](Cc1ccc(O)cc1)NC(=O)[C@H](CO)NC(=O)[C@H](CO)NC(=O)[C@@H](NC(=O)[C@H](CC(=O)O)NC(=O)[C@H](CO)NC(=O)[C@@H](NC(=O)[C@H](Cc1ccccc1)NC(=O)[C@@H](NC(=O)CNC(=O)[C@H](CCC(=O)O)NC(=O)C(C)(C)NC(=O)[C@@H](N)Cc1c[nH]cn1)[C@@H](C)O)[C@@H](C)O)C(C)C)C(=O)N[C@@H](C)C(=O)N[C@@H](Cc1c[nH]c2ccccc12)C(=O)N[C@@H](CC(C)C)C(=O)N[C@H](C(=O)N[C@@H](CCCNC(=N)N)C(=O)NCC(=O)N[C@@H](CCCNC(=N)N)C(=O)N[C@@H](CCCCNC(=O)COCCOCCNC(=O)[C@H](CCCCNC(=O)COCCOCCNC(=O)COCCOCCNC(=O)CC[C@H](NC(=O)[C@H]1CC[C@H](CNC(=O)CCCCCCCCCCCCCCCCCCC(=O)O)CC1)C(=O)O)NC(=O)COCCOCCNC(=O)COCCOCCNC(=O)CC[C@H](NC(=O)[C@H]1CC[C@H](CNC(=O)CCCCCCCCCCCCCCCCCCC(=O)O)CC1)C(=O)O)C(=O)O)C(C)C [Example 1, N{Epsilon-37}-[2-[2-[2-[[(2S)-2,6-bis[[2-[2-[2-[[2-[2-[2-[[(4S)-4-carboxy-4-[[4-[(19-carboxynonadecanoylamino)methyl]cyclohexanecarbonyl]amino]butanoyl]amino]ethoxy]ethoxy]acetyl]amino]ethoxy]ethoxy]acetyl]amino]hexanoyl]amino]ethoxy]ethoxy]acetyl]-[Aib8,Glu22,Arg26,Arg34,Lys37]-GLP-1-(7-37)-peptide] | 140 |  |  | 162
CC[C@H](C)[C@H](NC(=O)[C@H](Cc1ccccc1)NC(=O)[C@H](CCC(=O)O)NC(=O)[C@H](CCCNC(=N)N)NC(=O)[C@H](C)NC(=O)[C@H](C)NC(=O)[C@H](CCC(N)=O)NC(=O)[C@H](CCC(=O)O)NC(=O)[C@H](CCC(=O)O)NC(=O)[C@H](CC(C)C)NC(=O)[C@H](Cc1ccc(O)cc1)NC(=O)[C@H](CO)NC(=O)[C@H](CO)NC(=O)[C@@H](NC(=O)[C@H](CC(=O)O)NC(=O)[C@H](CO)NC(=O)[C@@H](NC(=O)[C@H](Cc1ccccc1)NC(=O)[C@@H](NC(=O)CNC(=O)[C@H](CCC(=O)O)NC(=O)C(C)(C)NC(=O)CCc1cnc[nH]1)[C@@H](C)O)[C@@H](C)O)C(C)C)C(=O)N[C@@H](C)C(=O)N[C@@H](Cc1c[nH]c2ccccc12)C(=O)N[C@@H](CC(C)C)C(=O)N[C@H](C(=O)N[C@@H](CCCNC(=N)N)C(=O)NCC(=O)N[C@@H](CCCNC(=N)N)C(=O)NCC(=O)NCC(=O)N[C@@H](CCCCNC(=O)COCCOCCNC(=O)COCCOCCNC(=O)COCCOCCNC(=O)COCCOCCNC(=O)[C@H](CCCCNC(=O)CC[C@H](NC(=O)[C@H]1CC[C@H](CNC(=O)CCCCCCCCCCCCCCCCCCC(=O)O)CC1)C(=O)O)NC(=O)CC[C@H](NC(=O)[C@H]1CC[C@H](CNC(=O)CCCCCCCCCCCCCCCCCCC(=O)O)CC1)C(=O)O)C(=O)O)C(C)C [Example 6, [Imp7,Aib8,Glu22,Arg26,Arg34]-GLP-1-(7-37)-peptidyl-Gly-N{Epsilon}[2-[2-[2-[[2-[2-[2-[[2-[2-[2-[[2-[2-[2-[[(2S)-2,6-bis[[(4S)-4-carboxy-4-[[4-[(19-carboxynonadecanoylamino)methyl]cyclohexanecarbonyl]amino]butanoyl]amino]hexanoyl]amino]ethoxy]ethoxy]acetyl]amino]ethoxy]ethoxy]acetyl]amino]ethoxy]ethoxy]acetyl]amino]ethoxy]ethoxy]acetyl]Lys] (Desaminohistidyl-[Aib]EGTFTSDVSSYLEEQAAREFIAWLVRGRGGK([AEEA-AEEA-AEEA-AEEA-X2])-OH; C-terminus assumed) | 140 |  | 0.15 | 
CC[C@H](C)[C@H](NC(=O)[C@H](Cc1ccccc1)NC(=O)[C@H](CCC(=O)O)NC(=O)[C@H](CCCNC(=N)N)NC(=O)[C@H](C)NC(=O)[C@H](C)NC(=O)[C@H](CCC(N)=O)NC(=O)[C@H](CCC(=O)O)NC(=O)[C@H](CCC(=O)O)NC(=O)[C@H](CC(C)C)NC(=O)[C@H](Cc1ccc(O)cc1)NC(=O)[C@H](CO)NC(=O)[C@H](CO)NC(=O)[C@@H](NC(=O)[C@H](CC(=O)O)NC(=O)[C@H](CO)NC(=O)[C@@H](NC(=O)[C@H](Cc1ccccc1)NC(=O)[C@@H](NC(=O)CNC(=O)[C@H](CCC(=O)O)NC(=O)C(C)(C)NC(=O)[C@@H](N)Cc1c[nH]cn1)[C@@H](C)O)[C@@H](C)O)C(C)C)C(=O)N[C@@H](C)C(=O)N[C@@H](Cc1c[nH]c2ccccc12)C(=O)N[C@@H](CC(C)C)C(=O)N[C@H](C(=O)N[C@@H](CCCNC(=N)N)C(=O)NCC(=O)N[C@@H](CCCNC(=N)N)C(=O)N[C@@H](CCCCNC(=O)[C@@H](N)CCCCNC(=O)[C@@H](N)CCCCNC(=O)[C@H](CCCCNC(=O)CC[C@H](NC(=O)[C@H]1CC[C@H](CNC(=O)CCCCCCCCCCCCCCCCCCC(=O)O)CC1)C(=O)O)NC(=O)CC[C@H](NC(=O)[C@H]1CC[C@H](CNC(=O)CCCCCCCCCCCCCCCCCCC(=O)O)CC1)C(=O)O)C(=O)O)C(C)C [Example 9, N{Epsilon-37}-[(2S)-2-amino-6-[[(2S)-2-amino-6-[[(2S)-2,6-bis[[(4S)-4-carboxy-4-[[4-[(19-carboxynonadecanoylamino)methyl]cyclohexanecarbonyl]amino]butanoyl]amino]hexanoyl]amino]hexanoyl]amino]hexanoyl]-[Aib8,Glu22,Arg26,Arg34,Lys37]-GLP-1-(7-37)-peptide] | 150 |  |  | 
